{"source": "patent US20090246293A1", "about": "(priority 2008, published 2009)", "key": {"[1]": {"tested_on": "Plasmopara viticola (PLASVI)", "type": "in vivo", "details": "for Reduction in percent disease, Formul. I / Reduction in percent disease, Formul. II: PLASVI; for effect of Formulation I on the effectiveness of fungicides, PLASVI: Table 20"}, "[2]": {"tested_on": "Phytophthora infestans (PHYTIN)", "type": "in vivo", "details": "for effect of Formulation I on the effectiveness of fungicides, PHYTIN: Table 20"}, "[3]": {"tested_on": "Pseudoperonospora cubensis (PSPECU)", "details": "in vivo"}, "[4]": {"details": "fungicide with Formulation I at 100 ppm, Table 21"}, "[5]": {"details": "fungicide with Formulation II at 100 ppm, Table 21"}, "[6]": {"details": "fungicide with Formulation I at 100 ppm, Table 19"}, "[7]": {"details": "fungicide with Formulation I at 100 ppm, Table 18"}, "[8]": {"details": "fungicide with Formulation II at 100 ppm of attractant derivative, Table 22"}, "[9]": {"details": "fungicide with Formulation I at 100 ppm"}, "[10]": {"details": "PHYTIN, fungicide with Formulation II at 100 ppm of attractant derivative, Table 22"}, "[11]": {"details": "aldehyde derivative 500 ppm with mancozeb, Table 16"}}, "note": "Read-outs that look alike come from different tables or passages of the source."}
{"compound": "Cc1ccc(-c2c(Cl)nc(C#N)n2S(=O)(=O)N(C)C)cc1", "note": "[Cyazofamid]", "values": [{"measurement": "Reduction in percent disease, Formul. I", "setting": "[1]; [4]", "result": "x (0-20% reduction in percent disease)"}, {"measurement": "Reduction in percent disease, Formul. II", "setting": "[1]; [5]", "result": "x (0-20% reduction in percent disease)"}, {"measurement": "Reduction in percent disease PLASVI", "setting": "[1]; [6]", "result": "x (0-20% reduction in percent disease)"}, {"measurement": "Reduction in percent disease, Formul. I", "setting": "[2]; PHYTIN, fungicide with Formulation I at 100 ppm, Table 21", "result": "xx (21-35% reduction in percent disease)"}, {"measurement": "Reduction in percent disease, Formul. II", "setting": "[2]; PHYTIN, fungicide with Formulation II at 100 ppm, Table 21", "result": "xxx (36-50% reduction in percent disease)"}, {"measurement": "Reduction in percent disease PHYTIN", "setting": "[2]; [6]", "result": "x (0-20% reduction in percent disease)"}, {"measurement": "Reduction in percent disease, Formul. II", "setting": "[3]", "result": "x (key: x: 0-20% reduction in percent disease; xx: 21-35% reduction in percent disease; xxx: 36-50% reduction in percent disease; xxxx: >50% reduction in percent disease)"}]}
{"compound": "CCNC(=O)NC(=O)/C(C#N)=N/OC", "note": "[Cymoxanil]", "values": [{"measurement": "Reduction in percent disease PLASVI", "setting": "[1]; [7]", "result": "x (0-20% reduction in percent disease)"}, {"measurement": "Reduction in percent disease PHYTIN", "setting": "[2]; [7]", "result": "xx (21-35% reduction in percent disease)"}, {"measurement": "Reduction in percent disease PSPECU", "setting": "[3]", "result": "x (key: x: 0-20% reduction in percent disease; xx: 21-35% reduction in percent disease; xxx: 36-50% reduction in percent disease; xxxx: >50% reduction in percent disease)"}]}
{"compound": "COc1ccc(C(=CC(=O)N2CCOCC2)c2ccc(Cl)cc2)cc1OC", "note": "[Dimethomorph]", "values": [{"measurement": "Reduction in percent disease PLASVI", "setting": "[1]; [6]", "result": "xx (21-35% reduction in percent disease)"}, {"measurement": "Reduction in percent disease PHYTIN", "setting": "[2]; [6]", "result": "x (0-20% reduction in percent disease)"}, {"measurement": "Reduction in percent disease PSPECU", "setting": "[3]", "result": "x (key: x: 0-20% reduction in percent disease; xx: 21-35% reduction in percent disease; xxx: 36-50% reduction in percent disease; xxxx: >50% reduction in percent disease)"}]}
{"compound": "CNC(=O)/C(=N/OC)c1ccccc1COc1cc(C)ccc1C", "note": "[Dimoxystrobin]", "values": [{"measurement": "Reduction in percent disease PLASVI", "setting": "[1]; [6]", "result": "x (0-20% reduction in percent disease)"}, {"measurement": "Reduction in percent disease PHYTIN", "setting": "[2]; [6]", "result": "x (0-20% reduction in percent disease)"}, {"measurement": "Reduction in percent disease PSPECU", "setting": "[3]", "result": "x (key: x: 0-20% reduction in percent disease; xx: 21-35% reduction in percent disease; xxx: 36-50% reduction in percent disease; xxxx: >50% reduction in percent disease)"}]}
{"compound": "CCNc1nc(CC)c(C(=O)NC(C#N)c2cccs2)s1", "note": "(stereo not shown) [Ethaboxam, reference compound]", "values": [{"measurement": "Reduction in percent disease, Formul. I", "setting": "[1]; [4]", "result": "x (0-20% reduction in percent disease)"}, {"measurement": "Reduction in percent disease, Formul. II", "setting": "[1]; [5]", "result": "x (0-20% reduction in percent disease)"}, {"measurement": "Reduction in percent disease PLASVI", "setting": "[1]; [6]", "result": "x (0-20% reduction in percent disease)"}, {"measurement": "Reduction in percent disease PHYTIN", "setting": "[2]; [6]", "result": "x (0-20% reduction in percent disease)"}, {"measurement": "Reduction in percent disease, Formul. II", "setting": "[3]", "result": "x (key: x: 0-20% reduction in percent disease; xx: 21-35% reduction in percent disease; xxx: 36-50% reduction in percent disease; xxxx: >50% reduction in percent disease)"}]}
{"compound": "O=C(NCc1ncc(C(F)(F)F)cc1Cl)c1c(Cl)cccc1Cl", "note": "[Fluopicolide]", "values": [{"measurement": "Reduction in percent disease, Formul. II", "setting": "[1]; [8]", "result": "x (0-20% reduction in percent disease)"}, {"measurement": "effect of Formulation I on the effectiveness of fungicides, PHYTIN", "setting": "[2]; [9]", "result": "xx (21-35% reduction in percent disease)"}, {"measurement": "effect of Formulation I on the effectiveness of fungicides, PSPECU", "setting": "[3]", "result": "x (key: x: 0-20% reduction in percent disease; xx: 21-35% reduction in percent disease; xxx: 36-50% reduction in percent disease; xxxx: >50% reduction in percent disease)"}]}
{"compound": "Cc1ccc(C(C)NC(=O)[C@@H](NC(=O)OC(C)C)C(C)C)cc1", "note": "(stereo partly shown) [Iprovalicarb]", "values": [{"measurement": "Reduction in percent disease PLASVI", "setting": "[1]; [6]", "result": "xx (21-35% reduction in percent disease)"}, {"measurement": "Reduction in percent disease PHYTIN", "setting": "[2]; [6]", "result": "x (0-20% reduction in percent disease)"}, {"measurement": "Reduction in percent disease PSPECU", "setting": "[3]", "result": "x (key: x: 0-20% reduction in percent disease; xx: 21-35% reduction in percent disease; xxx: 36-50% reduction in percent disease; xxxx: >50% reduction in percent disease)"}]}
{"compound": "C#CCOc1ccc(CCNC(=O)C(OCC#C)c2ccc(Cl)cc2)cc1OC", "note": "(stereo not shown) [Mandipropamid]", "values": [{"measurement": "Reduction in percent disease PLASVI", "setting": "[1]; [6]", "result": "xx (21-35% reduction in percent disease)"}, {"measurement": "Reduction in percent disease PHYTIN", "setting": "[2]; [6]", "result": "x (0-20% reduction in percent disease)"}, {"measurement": "Reduction in percent disease PSPECU", "setting": "[3]", "result": "x (key: x: 0-20% reduction in percent disease; xx: 21-35% reduction in percent disease; xxx: 36-50% reduction in percent disease; xxxx: >50% reduction in percent disease)"}]}
{"compound": "COCC(=O)N(c1c(C)cccc1C)[C@H](C)C(=O)OC", "note": "[Mefenoxam]", "values": [{"measurement": "Reduction in percent disease, Formul. II", "setting": "[1]; [8]", "result": "xx (21-35% reduction in percent disease)"}, {"measurement": "effect of Formulation I on the effectiveness of fungicides, PLASVI", "setting": "[1]; [9]", "result": "x (0-20% reduction in percent disease)"}, {"measurement": "Reduction in percent disease, Formul. II", "setting": "[2]; [10]", "result": "xx (21-35% reduction in percent disease)"}, {"measurement": "Reduction in percent disease PHYTIN", "setting": "[2]; [7]", "result": "xxxx (>50% reduction in percent disease)"}, {"measurement": "effect of Formulation I on the effectiveness of fungicides, PHYTIN", "setting": "[2]; [9]", "result": "xx (21-35% reduction in percent disease)"}, {"measurement": "Reduction in percent disease, Formul. II", "setting": "[3]", "result": "x (key: x: 0-20% reduction in percent disease; xx: 21-35% reduction in percent disease; xxx: 36-50% reduction in percent disease; xxxx: >50% reduction in percent disease)"}]}
{"compound": "COCC(=O)N(c1c(C)cccc1C)C(C)C(=O)OC", "note": "(stereo not shown) [Metalaxyl]", "values": [{"measurement": "effect of Formulation I on the effectiveness of fungicides, PLASVI", "setting": "[1]; [9]", "result": "x (0-20% reduction in percent disease)"}, {"measurement": "effect of Formulation I on the effectiveness of fungicides, PHYTIN", "setting": "[2]; [9]", "result": "xx (21-35% reduction in percent disease)"}, {"measurement": "effect of Formulation I on the effectiveness of fungicides, PSPECU", "setting": "[3]", "result": "x (key: x: 0-20% reduction in percent disease; xx: 21-35% reduction in percent disease; xxx: 36-50% reduction in percent disease; xxxx: >50% reduction in percent disease)"}]}
{"compound": "CO/C=C(/C(=O)OC)c1ccccc1COc1cccc(C(F)(F)F)n1", "note": "[Picoxystrobin]", "values": [{"measurement": "Reduction in percent disease PLASVI", "setting": "[1]; [7]", "result": "xxx (36-50% reduction in percent disease)"}, {"measurement": "Reduction in percent disease, Formul. II", "setting": "[2]; [10]", "result": "x (0-20% reduction in percent disease)"}, {"measurement": "Reduction in percent disease PHYTIN", "setting": "[2]; [7]", "result": "x (0-20% reduction in percent disease)"}, {"measurement": "Reduction in percent disease, Formul. II", "setting": "[3]", "result": "x (key: x: 0-20% reduction in percent disease; xx: 21-35% reduction in percent disease; xxx: 36-50% reduction in percent disease; xxxx: >50% reduction in percent disease)"}]}
{"compound": "CCCOC(=O)NCCCN(C)C", "note": "[Propamocarb]", "values": [{"measurement": "Reduction in percent disease PLASVI", "setting": "[1]; [7]", "result": "x (0-20% reduction in percent disease)"}, {"measurement": "Reduction in percent disease PHYTIN", "setting": "[2]; [7]", "result": "xx (21-35% reduction in percent disease)"}, {"measurement": "Reduction in percent disease PSPECU", "setting": "[3]", "result": "x (key: x: 0-20% reduction in percent disease; xx: 21-35% reduction in percent disease; xxx: 36-50% reduction in percent disease; xxxx: >50% reduction in percent disease)"}]}
{"compound": "condensation product of urea and 2- methylbutyraldehyde [Compound Q]", "values": [{"measurement": "Reduction in percent disease PLASVI", "setting": "[1]; [11]", "result": "x (0-20% reduction in percent disease)"}, {"measurement": "Reduction in percent disease PHYTIN", "setting": "[2]; [11]", "result": "x (0-20% reduction in percent disease)"}, {"measurement": "Reduction in percent disease PSPECU", "setting": "[3]", "result": "x (key: x: 0-20% reduction in percent disease; xx: 21-35% reduction in percent disease; xxx: 36-50% reduction in percent disease; xxxx: >50% reduction in percent disease)"}]}
{"compound": "condensation product of urea and 3,3- dimethylbutyraldehyde [Compound R]", "values": [{"measurement": "Reduction in percent disease PLASVI", "setting": "[1]; [11]", "result": "x (0-20% reduction in percent disease)"}, {"measurement": "Reduction in percent disease PHYTIN", "setting": "[2]; [11]", "result": "xx (21-35% reduction in percent disease)"}, {"measurement": "Reduction in percent disease PSPECU", "setting": "[3]", "result": "x (key: x: 0-20% reduction in percent disease; xx: 21-35% reduction in percent disease; xxx: 36-50% reduction in percent disease; xxxx: >50% reduction in percent disease)"}]}
